For 16 compounds, IC50 results are on record in patent publication US9120749B2, “Quinoline derivatives and MELK inhibitors containing the same” (ONCOTHERAPY SCIENCE, INC., priority 2010, dated 2015).

The subject of one assay is A549 cells. The experiment in a line: Cell-based assay: anti-proliferative activity, Cell Counting Kit-8, 72 hours (A549). As to conditions: Homo sapiens, A549, 72 h, 72 hours. The gist of the method:
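A549 cells were seeded in 96-well plates and exposed to candidate inhibitors for 72 hours. Cell growth was then measured with Cell Counting Kit-8, and IC50 values were calculated from the resulting growth data.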
(Formazan colour is commonly taken as a measure of viable cells.)

In another assay the test system is T47D cells. The assay is described as follows: Cell-based assay: anti-proliferative activity, Cell Counting Kit-8, 72 hours (T47D). As to conditions: Homo sapiens, T47D, 72 h. The method in brief:
(§1)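 Cellular growth is read by CCK-8 colorimetric kit 72 h after inhibitor addition to seeded cells, and IC50 values are derived from the resulting data; MELK protein levels in these lines are checked beforehand by immunoblotting whole crude lysate.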

In a further assay the target is MELK (Homo sapiens, UniProt Q14680). The experiment in a line: Kinase assay: MELK activity, phosphorylation of FITC-labeled histone H3 peptide measured by IMAP fluorescence polarization. As to conditions: read-out: IC50 (μM) (kinase assay). The class given is biochemical. The method in brief: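 FP readout: FITC-histone H3 peptide phosphorylation, read 0.5 h (RT) after stopping with 3x volume of IMAP progressive binding solution. Final DMSO 1%.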
Chain of MELK (Q14680 whole entry, looked up): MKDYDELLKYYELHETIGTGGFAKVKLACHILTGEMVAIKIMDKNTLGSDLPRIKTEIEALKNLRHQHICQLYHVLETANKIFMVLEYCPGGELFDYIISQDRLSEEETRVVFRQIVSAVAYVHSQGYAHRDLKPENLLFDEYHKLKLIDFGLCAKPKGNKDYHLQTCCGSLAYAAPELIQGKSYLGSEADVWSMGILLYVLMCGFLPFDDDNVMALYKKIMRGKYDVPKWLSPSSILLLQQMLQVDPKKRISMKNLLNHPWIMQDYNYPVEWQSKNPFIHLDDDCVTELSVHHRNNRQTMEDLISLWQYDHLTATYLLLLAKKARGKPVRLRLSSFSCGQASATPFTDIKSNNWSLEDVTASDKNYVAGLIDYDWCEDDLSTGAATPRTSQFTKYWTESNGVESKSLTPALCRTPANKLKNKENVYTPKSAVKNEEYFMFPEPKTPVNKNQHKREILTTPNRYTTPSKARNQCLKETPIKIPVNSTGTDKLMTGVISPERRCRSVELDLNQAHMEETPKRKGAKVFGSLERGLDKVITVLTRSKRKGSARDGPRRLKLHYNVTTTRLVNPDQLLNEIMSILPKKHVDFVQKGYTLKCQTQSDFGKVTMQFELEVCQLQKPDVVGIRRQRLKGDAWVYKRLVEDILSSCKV

For the next assay, the system named is DU4475 cells. The experiment in a line: Cell-based assay: anti-proliferative activity, Cell Counting Kit-8, 72 hours (DU4475). The note with it: Homo sapiens, DU-4475, 72 h.
A further assay concerns HT-1197 cells. The experiment in a line: Cell-based assay: anti-proliferative activity, Cell Counting Kit-8, 72 hours (HT-1197, negative control without MELK expression). As to conditions: Homo sapiens, HT1197, 72 h, HT1197 cells (negative control), 72 hours. The gist of the method:
as §1

For orientation: IC50 means the concentration at which inhibition is half-maximal.

Regarding `COc1cc(-c2ccc3ncc(C(=O)C4CC4)c(Nc4ccc(C(C)(C)N)cc4)c3c2)cc(Cl)c1O` [Example 603, (4-(4-(2-aminopropan-2-yl)phenylamino)-6-(3-chloro-4-hydroxy-5-methoxyphenyl)quinolin-3-yl)(cyclopropyl)methanone], the IC50 was 0.64 µM in the assay on A549 cells; 0.52 µM in the assay with T47D cells; 0.0036 µM at MELK; 0.37 µM in the assay with DU4475 cells; 1.7 µM in the assay on HT-1197 cells.
For `COc1cc(-c2ccc3ncc(C(=O)C4CC4)c(Nc4cnc(N5CCC(N)CC5)nc4)c3c2)cc(Cl)c1O` [Example 553, (4-(2-(4-aminopiperidin-1-yl)pyrimidin-5-ylamino)-6-(3-chloro-4-hydroxy-5-methoxyphenyl)quinolin-3-yl)(cyclopropyl)methanone] the same measures were 0.39 µM, 0.12 µM, 0.0056 µM, 0.95 µM and 2.1 µM.
For `COc1cc(-c2ccc3ncc(C(=O)C4CC4)c(N[C@H]4CC[C@H](CN5CC[C@@H](F)C5)CC4)c3c2)cc(Cl)c1O` [Example 569] the same measures were 0.4 µM, 0.62 µM, 0.011 µM, 0.41 µM and 1.8 µM.
Taken in the same sequence, the figures for `NC1CCCN(c2ccc(Nc3c(C(=O)C4CC4)cnc4ccc(-c5cc(Cl)c(O)c(Cl)c5)cc34)cn2)C1` (centres unmarked) [Example 556, (4-(6-(3-aminopiperidin-1-yl)pyridin-3-ylamino)-6-(3,5-dichloro-4-hydroxyphenyl)quinolin-3-yl)(cyclopropyl)methanone] were 0.023 µM, 0.03 µM, 0.0044 µM, 0.016 µM and 0.96 µM.
For `COc1cc(-c2ccc3ncc(C(C)=O)c(Nc4ccc(C(N)=O)cc4)c3c2)cc(Cl)c1O` [Example 544, 4-(3-acetyl-6-(3-chloro-4-hydroxy-5-methoxyphenyl)quinolin-4-ylamino)benzamide], the IC50 with A549 cells was determined as 0.47 µM; in the assay on T47D cells it was 0.17 µM; on MELK, 0.018 µM; in the assay on DU4475 cells it was 0.2 µM; in the assay with HT-1197 cells, 2.2 µM.
Regarding `COC1CCN(C[C@H]2CC[C@H](Nc3c(C(=O)C4CC4)cnc4ccc(-c5cc(F)c(O)c(Cl)c5)cc34)CC2)C1` (stereo partly drawn) [Example 627, (6-(3-chloro-5-fluoro-4-hydroxyphenyl)-4-((trans-4-((3-methoxypyrrolidin-1-yl)methyl)cyclohexyl)amino)quinolin-3-yl)(cyclopropyl)methanone], the IC50 with A549 cells stood at 0.11 µM; in the assay with T47D cells, 0.15 µM; on MELK, 0.024 µM; in the assay with DU4475 cells, 0.083 µM; in the assay with HT-1197 cells, 0.55 µM.
`NC1CCN(c2ncc(Nc3c(C(=O)C4CC4)cnc4ccc(-c5cc(Cl)c(O)c(Cl)c5)cc34)cn2)CC1` [Example 566, (4-(2-(4-aminopiperidin-1-yl)pyrimidin-5-ylamino)-6-(3,5-dichloro-4-hydroxyphenyl)quinolin-3-yl)(cyclopropyl)methanone]: the IC50 in the assay with A549 cells came out at 0.4 µM; in the assay with T47D cells, 0.11 µM; at MELK, 0.003 µM; with DU4475 cells it was 0.13 µM; in the assay on HT-1197 cells it was 2.6 µM.
`CN[C@H]1CC[C@H](Nc2c(C(=O)C3CC3)cnc3ccc(-c4cnc(C#N)nc4)cc23)CC1` [Example 522]: the IC50 was 0.95 µM in the assay with A549 cells; 0.23 µM with T47D cells; 0.0014 µM at MELK; 0.91 µM in the assay with DU4475 cells; 1.1 µM in the assay on HT-1197 cells.
As for `COc1cc(-c2ccc3ncc(C(=O)C4CC4)c(NC4C[C@H]5CC[C@@H](C4)N5)c3c2)cc(Cl)c1O` (stereo partly drawn) [Example 579, (4-((1R,3r,5S)-8-azabicyclo[3.2.1]octan-3-ylamino)-6-(3-chloro-4-hydroxy-5-methoxyphenyl)quinolin-3-yl)(cyclopropyl)methanone], the IC50 stood at 0.27 µM in the assay on A549 cells; 0.17 µM in the assay on T47D cells; 0.0042 µM at MELK; 0.14 µM in the assay with DU4475 cells; 7.8 µM with HT-1197 cells.
For `O=C(c1cnc2ccc(-c3ccc(O)c(Cl)c3)cc2c1Nc1cnn(C2CCNCC2)c1)C1CC1` [Example 519, (6-(3-chloro-4-hydroxyphenyl)-4-((1-(piperidin-4-yl)-1H-pyrazol-4-yl)amino)quinolin-3-yl)(cyclopropyl)methanone] the same measures were 0.14 µM, 0.12 µM, 0.003 µM, 0.1 µM and 1.6 µM.
For `NC1CCN(c2ccc(Nc3c(C(=O)C4CC4)cnc4ccc(-c5cc(Cl)c(O)c(Cl)c5)cc34)cn2)C1` (centres unmarked) [Example 575, (4-(6-(3-aminopyrrolidin-1-yl)pyridin-3-ylamino)-6-(3,5-dichloro-4-hydroxyphenyl)quinolin-3-yl)(cyclopropyl)methanone], the IC50 in the assay with A549 cells is 0.068 µM; with T47D cells, 0.028 µM; on MELK, 0.0031 µM; in the assay with DU4475 cells, 0.029 µM; in the assay with HT-1197 cells, 1.2 µM.
Taken in the same sequence, the figures for `O=C(c1cnc2ccc(-c3cc(F)c(O)c(Cl)c3)cc2c1Nc1ccc(N2CCNCC2)cn1)C1CC1` [Example 525, (6-(3-chloro-5-fluoro-4-hydroxyphenyl)-4-(5-(piperazin-1-yl)pyridin-2-ylamino)quinolin-3-yl)(cyclopropyl)methanone] were 1.7 µM, 0.48 µM, 0.0048 µM, 0.46 µM and 11 µM.
Taken in the same sequence, the figures for `COc1cc(-c2cc3c(Nc4ccc(N5CCNCC5)nc4)c(C(=O)C4CC4)cnc3cc2F)cc(Cl)c1O` [Example 578, (6-(3-chloro-4-hydroxy-5-methoxyphenyl)-7-fluoro-4-(6-(piperazin-1-yl)pyridin-3-ylamino)quinolin-3-yl)(cyclopropyl)methanone] were 1.9 µM, 3 µM, 0.021 µM, 2.8 µM and 8 µM.
`Nc1ccc(Nc2c(C(=O)C3CC3)cnc3ccc(-c4cc(Cl)c(O)c(Cl)c4)cc23)cn1` [Example 590, (4-(6-aminopyridin-3-ylamino)-6-(3,5-dichloro-4-hydroxyphenyl)quinolin-3-yl)(cyclopropyl)methanone]: the IC50 is 0.48 µM with A549 cells; 0.48 µM in the assay with T47D cells; 0.014 µM on MELK; 0.19 µM in the assay on DU4475 cells; 2.2 µM in the assay with HT-1197 cells.
Consider `COc1cc(-c2ccc3ncc(C(=O)C(C)C)c(N[C@H]4CC[C@H](CN(C)C)CC4)c3c2)cc(Cl)c1O` [Example 606], for which the IC50 with A549 cells came to 0.65 µM; in the assay with T47D cells, 0.65 µM; on MELK, 0.0063 µM; with DU4475 cells, 0.34 µM; in the assay with HT-1197 cells it was 1.1 µM.
On to `CCCC(=O)c1cnc2ccc(-c3cc(F)c(O)c(Cl)c3)cc2c1Nc1ccc(CN(C)C)cc1` [Example 537, 1-(6-(3-chloro-5-fluoro-4-hydroxyphenyl)-4-((4-((dimethylamino)methyl)phenyl)amino)quinolin-3-yl)butan-1-one], for which the IC50 came to 0.15 µM in the assay on A549 cells; 0.11 µM in the assay with T47D cells; 0.016 µM at MELK; 0.098 µM with DU4475 cells; 0.94 µM with HT-1197 cells.
